Measured values published in PMC4152272 (PLoS ONE, 2014).

Legend:
N188 (Novozyme 188 BGL) [1] = system: T1, N188 (Novozyme 188 BGL); assay: glucose release, glucose assay reagent, […] nm; format: biochemical; settings: 50 mM acetate pH 5.0
T1 construct: gene bglA; commercial preparation Novozyme 188 (Novozymes), partially purified; N-glycosylated

N188 (Novozyme 188 BGL) [2] = system: T1, N188 (Novozyme 188 BGL); assay: p-nitrophenol release, […] nm, nonlinear least squares; format: biochemical; settings: 50 mM acetate pH 5.0, 50°C, 1 min

Row | Structure (SMILES) | Km (N188 (Novozyme 188 BGL) [1]) [µM] | Km (N188 (Novozyme 188 BGL) [2]) [µM]
1 | OC[C@H]1O[C@@H](O[C@H]2[C@H](O)[C@@H](O)C(O)O[C@@H]2CO)[C@H](O)[C@@H](O)[C@@H]1O (some centres unmarked) [cellobiose] | 2530 ± 506 | –
2 | O=[N+]([O-])c1ccc(O[C@@H]2O[C@H](CO)[C@@H](O)[C@H](O)[C@H]2O)cc1 [pNPG, p-nitrophenyl β-D-glucopyranoside] | – | 1250 ± 164
